These are literature values, as cited in article PMC7745548 (International Journal of Tryptophan Research : IJTR, 2020).

One series concerns CYP2C9. The following applies: O-demethylation major pathway.
The test system of series [1] is human microsomal P450 1A2 (CYP1A2). The following applies: different crystal structure (PDB code: 1FAG) ref 26, 28.

`COc1ccc2c(c1)c(CC(=O)O)c(C)n2C(=O)c1ccc(Cl)cc1` [Indomethacin]: the “Metabolism by CYP2C9” value in the series on CYP2C9 was “mainly metabolised by CYP2C9”. Further, the “Metabolism by CYP1A2” value with CYP1A2 was “only slightly metabolised by CYP1A2”. As to `COc1ccc2[nH]cc(CCNC(C)=O)c2c1` [MLT, N-acetyl-5-methoxytryptamine], in series [1], the “Distance between SOM and Fe(II) ion of heme” value was 4.15 Å.
